The values below come from patent US9816989B2, “Immunologically active polypeptide” (Institute of Arthritis Research, LLC, priority 2013, dated 2017).

The subject of one assay is peripheral blood cells. In words: Cytokine production by human peripheral blood cells in culture (MSD panel). It counts as cell-based. How it is done: In order to examine the biological activity of IgX, cytokine production from human peripheral whole blood samples incubated with IgX was measured. Peripheral whole blood samples from three different donors (#66, 67, and 85) were obtained with appropriate informed consent and incubated with concentrations of IgX ranging from 0 to 200 ug/ml.
Protein A purified IgX was prepared from placental sample BC, brought to 0.05 M phosphate, 0.15 M NaCl buffer, pH 7.4, treated with an endotoxin affinity column (ActiClean Etox™ from Sterogene, Carlsbad, Calif.) according to the supplier's instructions, and then sent to IBT Bioservices (Gaithersburg, Md.) for human peripheral blood testing. […] All peripheral blood cells were suspended in RPMI-1640 media. Various concentrations of IgX were incubated with peripheral blood cells from donor D66 for 18 hours, and then the samples were stimulated with 1 ug/ml of PHA, 50 ng/ml of LPS, or 10 ng/ml of IFNγ (200 U/ml) for four hours. Samples of culture supernatant fluids were tested in duplicate for the presence of IL-2, IL-4, IL-6, IL-10, IL-12, and TNFα using a Meso Scale Discovery (MSD, Gaithersburg, Md.) panel.
PeptideX1 and PeptideX2 were incubated with peripheral blood cells from donor D67 as described above and tested in duplicate for IL-6 activity. […]

In assay [1] the test system is macrophage cell line (THP-1). In words: Flow cytometry binding to macrophage/monocyte cell line with or without LPS. Conditions: presence or absence of LPS. A general note: In flow cytometry, cells or beads pass a laser one at a time.
A further assay deals with E. coli. In words: E. coli growth (CFUs) incubated with human peripheral blood leukocytes with and without PeptideX2. Conditions: E. coli with WBCs and PeptideX2; 10 hours; FIG. 11. It counts as cell-based. How it is done: To test this hypothesis, human peripheral white cells were incubated with E. coli in the presence and absence of PeptideX2.
Human peripheral blood leukocytes (WBCs) were obtained from healthy donors with informed consent. Three test groups were inoculated with E. coli and incubated for 10 hours. The three groups were E. coli with serum alone, E. coli with WBCs, and E. coli with WBCs with PeptideX2. Samples were taken at 0, 2, 4, 6 and 10 hours and plated for colony forming units (CFUs). […] In a separate but similar experiment, nine test groups (E. coli with serum alone, E. coli with WBCs, and E. coli with WBCs with PeptideX2 at each of seven indicated concentrations, see FIG. 12) were incubated over a time course of three hours, with quantification of bacterial CFU performed at times 0, 1.5 and 3 hours (FIG. 12).

For the sequence “KSIAYLQMNSLK (Peptide fragment) [PeptideX2]”, the “IL-6 production compared to peptideX1” value with peripheral blood cells (cells from donor #67, FIG. 7) is listed as “significantly greater”. Moreover, the IL-6 production result in the assay with peripheral blood cells (cells from donor #85, PeptideX2 0-200 ug/ml, FIG. 9) is recorded as “enhanced production”. Also, the “binding to monocyte cell line” value in assay [1] is recorded as “without any binding”. In addition, the “E. coli CFUs” value in the assay on E. coli is on record as “rapid rise in CFUs”.
